Measured values: patent US11358957B2, “Microbiocidal oxadiazole derivatives” (SYNGENTA PARTICIPATIONS AG, priority 2017, dated 2022)
Values belong to the compound of their own block, whether it stands above or below them.

Legend:
[1] = tested on: Glomerella lagenarium (Colletotrichum lagenarium); assay: Fungicidal activity against Glomerella lagenarium (Colletotrichum lagenarium) liquid culture / cucumber / preventative (anthracnose); assay type: cell-based; conditions: Colletotrichum orbiculare; 20 ppm in the applied formulation; liquid culture (PDB), inhibition of growth measured photometrically 3 to 4 days after application; compared to untreated; read-out: disease control
Outline: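 Conidia from cryogenic storage mixed into potato dextrose broth and added to compound in DMSO in microtiter plates. Incubated at 24° C.; growth inhibition read photometrically 3 to 4 days after application. Disease control expressed relative to untreated control, with compound at 20 ppm in the applied formulation.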

[2] = tested on: Puccinia recondita f. Sp. Tritici; assay: Fungicidal activity against Puccinia recondita f. sp. tritici / wheat / leaf disc curative (brown rust); assay type: in vivo; conditions: foliar, 24 h, 200 ppm in the applied formulation, wheat leaf segments cv. Kanzler, curative (applied 1 day after inoculation), compared to untreated, read-out: disease control
Outline: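 Wheat leaf segments (cv. Kanzler) on agar were inoculated with brown rust spores, kept dark at 19 °C and 75% RH, then sprayed 1 day later with compound (DMSO stock diluted in 0.025% Tween20). Under 12 h light/12 h dark at 19 °C, percent disease control versus untreated was scored 6–8 days after application; 200 ppm applied.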

[3] = tested on: Phakopsora pachyrhizi; assay: Fungicidal activity against Phakopsora pachyrhizi / soybean / leaf disc preventative (Asian soybean rust); assay type: in vivo; conditions: foliar, 200 ppm in the applied formulation, soybean leaf disks, compared to untreated, read-out: disease control
Experimental: Leaf disks or leaf segments of various plant species are cut from plants grown in a greenhouse. The cut leaf disks or segments are placed in multiwell plates (24-well format) onto water agar. The leaf disks are sprayed with a test solution before (preventative) or after (curative) inoculation. Compounds to be tested are prepared as DMSO solutions (max. 10 mg/mL) which are diluted to the appropriate concentration with 0.025% Tween20 just before spraying. The inoculated leaf disks or segments are incubated under defined conditions (temperature, relative humidity, light, etc.) according to the respective test system. A single evaluation of disease level is carried out 3 to 14 days after inoculation, depending on the pathosystem. Percent disease control relative to the untreated check leaf disks or segments is then calculated. Soybean leaf disks are placed on water agar in multiwell plates (24-well format) and sprayed with the formulated test compound diluted in water. One day after application leaf discs are inoculated by spraying a spore suspension on the lower leaf surface. After an incubation period in a climate cabinet of 24-36 hours in darkness at 20° C. and 75% rh leaf disc are kept at 20° C. with 12 h light/day and 75% rh. The activity of a compound is assessed as percent disease control compared to untreated when an appropriate level of disease damage appears in untreated check leaf disks (12 to 14 days after application). The following compounds at 200 ppm in the applied formulation give at least 80% disease control in this test when compared to untreated control leaf disks under the same conditions, which show extensive disease development.

[4] = tested on: Puccinia recondita f. Sp. Tritici; assay: Fungicidal activity against Puccinia recondita f. sp. tritici / wheat / leaf disc preventative (brown rust); assay type: in vivo; conditions: foliar, 200 ppm in the applied formulation, wheat leaf segments cv. Kanzler, preventative (inoculated 1 day after application), compared to untreated, read-out: disease control
Outline: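 Segments of wheat cv. Kanzler on water agar were sprayed with compound and inoculated with spores 1 day later. They were kept at 19 °C, 75% rh and 12 h light/12 h dark. Percent disease control versus untreated was scored 7–9 days after application; compounds were tested at 200 ppm.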

melting point: 119 to 123 °C
SMILES: CCOC(=O)c1cnn(Cc2cc(-c3noc(C(F)(F)F)n3)cs2)c1 [Compound 1.26, ethyl 1-[[4-[5-(trifluoromethyl)-1,2,4-oxadiazol-3-yl]-2-thienyl]methyl]pyrazole-4-carboxylate]
inhibition of growth at 20 ppm [1]: ≥ 80%
pest or weed control at 200 ppm [4]: ≥ 80%

melting point: 76 to 78 °C
SMILES: CC(c1ccc(-c2noc(C(F)(F)F)n2)s1)n1cc(C(=O)N2CCC2)cn1 (stereo not shown) [Compound 1.35, azetidin-1-yl-[1-[1-[5-[5-(trifluoromethyl)-1,2,4-oxadiazol-3-yl]-2-thienyl]ethyl]pyrazol-4-yl]methanone]
inhibition of growth at 20 ppm [1]: ≥ 80%
pest or weed control at 200 ppm [2]: ≥ 80%
pest or weed control at 200 ppm [3]: ≥ 80%
pest or weed control at 200 ppm [4]: ≥ 80%

melting point: 182 to 185 °C
SMILES: O=C(O)c1cnn(Cc2ccc(-c3noc(C(F)(F)F)n3)s2)c1 [Compound 1.36, 1-[[5-[5-(trifluoromethyl)-1,2,4-oxadiazol-3-yl]-2-thienyl]methyl]pyrazole-4-carboxylic acid]
inhibition of growth at 20 ppm [1]: ≥ 80%
pest or weed control at 200 ppm [2]: ≥ 80%
pest or weed control at 200 ppm [4]: ≥ 80%

melting point: 133 to 143 °C
SMILES: CC(c1ccc(-c2noc(C(F)(F)F)n2)s1)n1cc(C(=O)O)cn1 (stereo not shown) [Compound 1.37, 1-[1-[5-[5-(trifluoromethyl)-1,2,4-oxadiazol-3-yl]-2-thienyl]ethyl]pyrazole-4-carboxylic acid]
inhibition of growth at 20 ppm [1]: ≥ 80%
pest or weed control at 200 ppm [2]: ≥ 80%
pest or weed control at 200 ppm [4]: ≥ 80%

melting point: 150.8 to 155.7 °C
SMILES: CNC(=O)c1cnn(Cc2ccc(-c3noc(C(F)(F)F)n3)s2)c1 [Compound 1.38, N-methyl-1-[[5-[5-(trifluoromethyl)-1,2,4-oxadiazol-3-yl]-2-thienyl]methyl]pyrazole-4-carboxamide]
inhibition of growth at 20 ppm [1]: ≥ 80%
pest or weed control at 200 ppm [2]: ≥ 80%
pest or weed control at 200 ppm [3]: ≥ 80%
pest or weed control at 200 ppm [4]: ≥ 80%

melting point: 135.3 to 137.9 °C
SMILES: COCCNC(=O)c1cnn(Cc2ccc(-c3noc(C(F)(F)F)n3)s2)c1 [Compound 1.39, N-(2-methoxyethyl)-1-[[5-[5-(trifluoromethyl)-1,2,4-oxadiazol-3-yl]-2-thienyl]methyl]pyrazole-4-carboxamide]
inhibition of growth at 20 ppm [1]: ≥ 80%
pest or weed control at 200 ppm [2]: ≥ 80%
pest or weed control at 200 ppm [3]: ≥ 80%
pest or weed control at 200 ppm [4]: ≥ 80%

melting point: 136 to 140 °C
SMILES: CCOC(=O)c1ncn(Cc2ccc(-c3noc(C(F)(F)F)n3)s2)n1 [Compound 1.40, ethyl 1-[[5-[5-(trifluoromethyl)-1,2,4-oxadiazol-3-yl]-2-thienyl]methyl]-1,2,4-triazole-3-carboxylate]
inhibition of growth at 20 ppm [1]: ≥ 80%
pest or weed control at 200 ppm [2]: ≥ 80%
pest or weed control at 200 ppm [3]: ≥ 80%
pest or weed control at 200 ppm [4]: ≥ 80%

melting point: 120 to 124 °C
SMILES: CCOC(=O)c1ccn(Cc2ccc(-c3noc(C(F)(F)F)n3)s2)n1 [Compound 1.42, ethyl 1-[[5-[5-(trifluoromethyl)-1,2,4-oxadiazol-3-yl]-2-thienyl]methyl]pyrazole-3-carboxylate]
inhibition of growth at 20 ppm [1]: ≥ 80%
pest or weed control at 200 ppm [2]: ≥ 80%
pest or weed control at 200 ppm [3]: ≥ 80%
pest or weed control at 200 ppm [4]: ≥ 80%

melting point: 210 to 220 °C
SMILES: O=C(O)c1ncn(Cc2ccc(-c3noc(C(F)(F)F)n3)s2)n1 [Compound 1.63, 1-[[5-[5-(trifluoromethyl)-1,2,4-oxadiazol-3-yl]-2-thienyl]methyl]-1,2,4-triazole-3-carboxylic acid]
pest or weed control at 200 ppm [2]: ≥ 80%
pest or weed control at 200 ppm [4]: ≥ 80%

melting point: 145 to 165 °C
SMILES: O=C(O)c1ccnn1Cc1ccc(-c2noc(C(F)(F)F)n2)s1 [Compound 1.64, 2-[[5-[5-(trifluoromethyl)-1,2,4-oxadiazol-3-yl]-2-thienyl]methyl]pyrazole-3-carboxylic acid]
inhibition of growth at 20 ppm [1]: ≥ 80%
pest or weed control at 200 ppm [2]: ≥ 80%
pest or weed control at 200 ppm [4]: ≥ 80%

The next lines start with the compound.

SMILES: CN(C)c1ncn(Cc2ccc(-c3noc(C(F)(F)F)n3)s2)n1 [Compound 1.4, N,N-dimethyl-1-[[5-[5-(trifluoromethyl)-1,2,4-oxadiazol-3-yl]-2-thienyl]methyl]-1,2,4-triazol-3-amine]
inhibition of growth at 20 ppm [1]: ≥ 80%
pest or weed control at 200 ppm [2]: ≥ 80%
pest or weed control at 200 ppm [3]: ≥ 80%
melting point: 113 to 116 °C
pest or weed control at 200 ppm [4]: ≥ 80%

SMILES: CCCOC(=O)c1ncnn1Cc1ccc(-c2noc(C(F)(F)F)n2)s1 [Compound 1.44, propyl 2-[[5-[5-(trifluoromethyl)-1,2,4-oxadiazol-3-yl]-2-thienyl]methyl]-1,2,4-triazole-3-carboxylate]
inhibition of growth at 20 ppm [1]: ≥ 80%
pest or weed control at 200 ppm [2]: ≥ 80%
pest or weed control at 200 ppm [3]: ≥ 80%
pest or weed control at 200 ppm [4]: ≥ 80%

SMILES: CCOC(=O)c1ccnn1Cc1ccc(-c2noc(C(F)(F)F)n2)s1 [Compound 1.45, ethyl 2-[[5-[5-(trifluoromethyl)-1,2,4-oxadiazol-3-yl]-2-thienyl]methyl]pyrazole-3-carboxylate]
inhibition of growth at 20 ppm [1]: ≥ 80%
pest or weed control at 200 ppm [2]: ≥ 80%
pest or weed control at 200 ppm [3]: ≥ 80%
pest or weed control at 200 ppm [4]: ≥ 80%

SMILES: CCCOC(=O)c1ccnn1Cc1ccc(-c2noc(C(F)(F)F)n2)s1 [Compound 1.47, propyl 2-[[5-[5-(trifluoromethyl)-1,2,4-oxadiazol-3-yl]-2-thienyl]methyl]pyrazole-3-carboxylate]
inhibition of growth at 20 ppm [1]: ≥ 80%
pest or weed control at 200 ppm [2]: ≥ 80%
pest or weed control at 200 ppm [3]: ≥ 80%
pest or weed control at 200 ppm [4]: ≥ 80%

SMILES: CN(C)C(=O)c1ncnn1Cc1ccc(-c2noc(C(F)(F)F)n2)s1 [Compound 1.50, N,N-dimethyl-2-[[5-[5-(trifluoromethyl)-1,2,4-oxadiazol-3-yl]-2-thienyl]methyl]-1,2,4-triazole-3-carboxamide]
inhibition of growth at 20 ppm [1]: ≥ 80%
pest or weed control at 200 ppm [2]: ≥ 80%
pest or weed control at 200 ppm [3]: ≥ 80%
pest or weed control at 200 ppm [4]: ≥ 80%

SMILES: COC(=O)c1ccn(Cc2ccc(-c3noc(C(F)(F)F)n3)s2)n1 [Compound 1.53, methyl 1-[[5-[5-(trifluoromethyl)-1,2,4-oxadiazol-3-yl]-2-thienyl]methyl]pyrazole-3-carboxylate]
inhibition of growth at 20 ppm [1]: ≥ 80%
pest or weed control at 200 ppm [2]: ≥ 80%
pest or weed control at 200 ppm [3]: ≥ 80%
pest or weed control at 200 ppm [4]: ≥ 80%

SMILES: COC(=O)c1ccnn1Cc1ccc(-c2noc(C(F)(F)F)n2)s1 [Compound 1.54, methyl 2-[[5-[5-(trifluoromethyl)-1,2,4-oxadiazol-3-yl]-2-thienyl]methyl]pyrazole-3-carboxylate]
inhibition of growth at 20 ppm [1]: ≥ 80%
pest or weed control at 200 ppm [2]: ≥ 80%
pest or weed control at 200 ppm [3]: ≥ 80%
pest or weed control at 200 ppm [4]: ≥ 80%

SMILES: COC(=O)c1ncnn1Cc1ccc(-c2noc(C(F)(F)F)n2)s1 [Compound 1.55, methyl 2-[[5-[5-(trifluoromethyl)-1,2,4-oxadiazol-3-yl]-2-thienyl]methyl]-1,2,4-triazole-3-carboxylate]
inhibition of growth at 20 ppm [1]: ≥ 80%
pest or weed control at 200 ppm [2]: ≥ 80%
pest or weed control at 200 ppm [3]: ≥ 80%
pest or weed control at 200 ppm [4]: ≥ 80%
